{"source": "paper PMC3907537", "about": "“Evaluation of the Endothelin Receptor Antagonists Ambrisentan, Bosentan, Macitentan, and Sitaxsentan as Hepatobiliary Transporter Inhibitors and Substrates in Sandwich-Cultured Human Hepatocytes” (PLoS ONE, 2014)", "key": {"NTCP": {"molecular_target": "T1, NTCP (Homo sapiens, UniProt Q14973)", "T1 construct": "host or cells: CHO", "T1 sequence (Q14973 1-349)": "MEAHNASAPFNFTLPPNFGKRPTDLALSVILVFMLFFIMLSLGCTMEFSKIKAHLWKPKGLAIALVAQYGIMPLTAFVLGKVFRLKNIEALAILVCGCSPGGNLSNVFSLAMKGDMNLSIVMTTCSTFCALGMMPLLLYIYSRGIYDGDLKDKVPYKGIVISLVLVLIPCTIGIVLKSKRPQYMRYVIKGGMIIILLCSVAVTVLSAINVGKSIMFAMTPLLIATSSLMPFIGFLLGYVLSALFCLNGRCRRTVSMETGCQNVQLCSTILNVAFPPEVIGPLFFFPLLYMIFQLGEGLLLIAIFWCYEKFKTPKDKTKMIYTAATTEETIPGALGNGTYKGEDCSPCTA", "assay": "NTCP inhibition, 3H taurocholate uptake in transfected CHO cells", "type": "cell-based", "conditions": "mean ± SD of 3 independent studies in duplicate, tested 0.14–100 µM", "excerpt": "Chinese Hamster Ovary (CHO) cells were obtained from Professor B. Stieger’s laboratory at University of Zurich, Zurich, Switzerland. Madin-Darby Canine Kidney strain II (MDCKII) cells were obtained from Nederlands Kanker Instituut (NKI), Amsterdam, Netherlands. NTCP-CHO cells, BSEP and MRP2 membrane vesicles were developed and validated at Solvo Biotechnology, Budaors, Hungary.\nCHO cells, either wild type or transfected with the genes encoding human NTCP, OATP1B1 and OATP1B3, were maintained in Dulbecco’s Modification of Eagle’s Medium (DMEM) containing 1,000 mg/L D-glucose, L-glutamine, 25 mM HEPES buffer, 110 mg/L sodium pyruvate, 1% Penicillin/Streptomycin, 10% fetal bovine serum (FBS), 0.05 mg/mL L proline and 0.5 mg/mL of geneticin G-418. Cells were maintained in incubators set at 37°C, 90% humidity and 5% CO2. OATP1B1 and OATP1B3 over-expressing cells were seeded in BioCoat Poly-D-Lysine coated 96-well black cell culture plates with clear bottoms at a density of 1×10^5 cells/well. Sodium butyrate (10 mM) was added to the OATP1B1 and OATP1B3 cells once seeded to increase the protein expression level and the cells were grown to confluence overnight. The assay buffer contained 142 mM NaCl, 5 mM KCl, 1 mM KH2PO4, 1.2 mM MgSO4, 1.5 mM CaCl2, 5 mM Glucose and 12.5 mM HEPES (pH 7.4). After removal of the media and before adding test compounds, the cells were washed twice with 37°C assay buffer followed by a 0.5 h pre-incubation with assay buffer. […] Wells were analyzed for Fluo 3 fluorescence at an excitation of 485 nm and emission of 530 nm. Inhibition of NTCP was studied using similar conditions to those described for OATP1B1 and OATP1B3 except that inhibition of the uptake ^3H taurocholate into transfected CHO cells was monitored using radioactive scintillation counting.\nAll assays were performed in duplicate. […] IC50 values were calculated using non-linear fitting of % inhibition versus concentration to a sigmoidal curve with a variable Hill Coefficient using GraphPad Prism 5 (GraphPad Software Inc., San Diego, CA)."}, "fresh human hepatocytes": {"test_system": "fresh human hepatocytes", "assay": "Cellular uptake of bosentan and macitentan into fresh human hepatocytes with or without transport inhibitors", "type": "in vitro ADME", "conditions": "300 nM", "procedure": "The cellular uptake of bosentan and macitentan was determined in fresh human hepatocytes purchased from Celsis/IVT (Baltimore, MD) or Life Technologies (Foster City, CA). Cells were pre-incubated in Krebs-Henseleit Buffer containing 5% bovine serum albumin for 30 min at 37°C prior to assay. Cells were then co-incubated in the presence and absence of an inhibitor cocktail containing 40 µM rifampicin and 5 µM of cyclosporin A for 15 min. Test compounds bosentan and macitentan were diluted to 3 fold of final target concentration in the same assay buffer and equilibrated at 37°C for 30 min. The uptake assay was initiated by adding 50 µL of test compound solution to the 48-well plate containing 100 µL cell suspension, mixed and incubated at 37°C for 30, 60 and 90 sec. Final cell density was 2×10^6 cells/mL with a final test compound concentration of 300 nM. The reaction mixture was overlaid onto pre-prepared microcentrifuge tubes containing 100 µL of 2 N NaOH (bottom layer) and 100 µL of filtration oil (middle layer; 74.5∶25.5 silicon oil:mineral oil mix) followed by centrifugation at 13,000 g for 30 sec. The samples were allowed to sit at room temperature for 2 h and then frozen at −80°C. The microcentrifuge tubes were then cut and the bottom layer containing the cell lysate collected. HCl solution was added to neutralize the solution. Samples were extracted with organic solvents for analysis by liquid chromatography coupled to tandem mass spectrometry (LC/MS/MS)."}, "BSEP": {"test_system": "BSEP", "design": "method as in PMID 11309550, PMID 20829430, PMID 17061295, PMID 23956101", "conditions": "read-out: BSEP inhibition values previously reported (IC50); cited from earlier work"}, "canine BCRP": {"test_system": "canine BCRP", "design": "method as in PMID 23353592", "conditions": "cited from earlier work"}, "[1]": {"design": "method as in PMID 22189899", "conditions": "plasma pharmacokinetics in patients ref 36; cited from earlier work"}, "[2]": {"conditions": "cited from earlier work"}, "Pgp": {"molecular_target": "T2, Pgp (Homo sapiens, UniProt P08183)", "T2 construct": "host or cells: MDCKII", "T2 sequence (P08183 whole entry)": "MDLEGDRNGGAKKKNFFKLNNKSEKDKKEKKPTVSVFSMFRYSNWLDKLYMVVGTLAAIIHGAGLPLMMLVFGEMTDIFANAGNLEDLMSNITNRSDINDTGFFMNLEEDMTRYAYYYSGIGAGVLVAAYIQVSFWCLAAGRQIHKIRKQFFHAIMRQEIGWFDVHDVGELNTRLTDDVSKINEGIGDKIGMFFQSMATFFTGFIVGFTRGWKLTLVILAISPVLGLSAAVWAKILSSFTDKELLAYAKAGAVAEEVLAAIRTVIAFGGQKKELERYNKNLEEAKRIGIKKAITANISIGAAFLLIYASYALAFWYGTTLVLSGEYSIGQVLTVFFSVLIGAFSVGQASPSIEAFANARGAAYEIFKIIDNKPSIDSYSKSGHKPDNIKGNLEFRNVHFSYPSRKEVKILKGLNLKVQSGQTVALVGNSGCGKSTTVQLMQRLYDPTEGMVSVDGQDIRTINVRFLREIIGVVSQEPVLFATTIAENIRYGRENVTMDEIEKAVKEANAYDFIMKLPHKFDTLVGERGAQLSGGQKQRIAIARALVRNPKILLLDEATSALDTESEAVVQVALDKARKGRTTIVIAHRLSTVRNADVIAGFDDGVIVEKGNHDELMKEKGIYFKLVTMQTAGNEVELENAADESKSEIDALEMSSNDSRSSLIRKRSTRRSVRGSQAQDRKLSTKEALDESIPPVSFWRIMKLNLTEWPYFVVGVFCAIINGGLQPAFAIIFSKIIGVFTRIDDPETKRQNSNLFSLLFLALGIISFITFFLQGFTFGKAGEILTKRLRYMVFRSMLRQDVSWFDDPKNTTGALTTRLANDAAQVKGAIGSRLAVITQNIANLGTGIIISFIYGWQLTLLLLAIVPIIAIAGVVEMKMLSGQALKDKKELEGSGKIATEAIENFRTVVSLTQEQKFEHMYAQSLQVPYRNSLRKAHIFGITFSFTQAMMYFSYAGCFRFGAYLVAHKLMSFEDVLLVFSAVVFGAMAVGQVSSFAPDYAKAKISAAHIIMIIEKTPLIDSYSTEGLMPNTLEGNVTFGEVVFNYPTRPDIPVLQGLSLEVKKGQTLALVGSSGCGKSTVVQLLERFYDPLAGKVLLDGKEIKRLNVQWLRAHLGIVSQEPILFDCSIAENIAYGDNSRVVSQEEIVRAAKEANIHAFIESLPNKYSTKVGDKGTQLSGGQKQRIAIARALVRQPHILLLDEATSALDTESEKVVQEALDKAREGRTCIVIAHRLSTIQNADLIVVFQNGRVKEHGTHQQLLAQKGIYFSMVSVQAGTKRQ", "design": "method as in earlier work", "conditions": "data previously reported, similar conditions ref 35; cited from earlier work"}}, "note": "Values joined by “and” are separate entries in the source; they are usually repeats but may differ in a detail not shown here. Equal values may be shown once.", "data": [{"smiles": "COC(c1ccccc1)(c1ccccc1)[C@H](Oc1nc(C)cc(C)n1)C(=O)O", "note": "[ambrisentan]", "values": [{"measurement": "IC50", "setting": "NTCP", "result": "> 100", "unit": "µM"}]}, {"smiles": "COc1ccccc1Oc1c(NS(=O)(=O)c2ccc(C(C)(C)C)cc2)nc(-c2ncccn2)nc1OCCO", "note": "[bosentan]", "values": [{"measurement": "IC50", "setting": "NTCP", "result": "36 µM and 35.6 µM"}, {"measurement": "reduction of cellular uptake in the presence of transport inhibitors", "setting": "fresh human hepatocytes; 40 µM rifampicin plus 5 µM cyclosporin A, fresh human hepatocytes", "result": 46, "unit": "%"}, {"measurement": "cellular uptake in the absence of transport inhibitors", "setting": "fresh human hepatocytes; fresh primary human hepatocytes, n = 4 donors", "result": "4.6±0.7 pmol/million cells and 4.6 pmol/million cells"}, {"measurement": "IC50", "setting": "BSEP", "result": "12 to 76.8", "unit": "µM"}]}, {"smiles": "CCCNS(=O)(=O)Nc1ncnc(OCCOc2ncc(Br)cn2)c1-c1ccc(Br)cc1", "note": "[macitentan]", "values": [{"measurement": "IC50", "setting": "NTCP", "result": "10 µM and 9.8 µM"}, {"measurement": "cellular uptake relative to that of bosentan", "setting": "fresh human hepatocytes; human", "result": "approximately 7 times"}, {"measurement": "IC50", "setting": "canine BCRP", "result": "13.2 µM and 13 µM"}, {"measurement": "increase in macitentan exposure on coadministration with cyclosporin A", "setting": "[1]", "result": 10, "unit": "%"}, {"measurement": "increase in macitentan trough concentration on coadministration with cyclosporin A", "setting": "[1]", "result": 38, "unit": "%"}, {"measurement": "elevations >8X ULN on macitentan compared to placebo", "setting": "[2]; SERAPHIN ref 19", "result": "~5", "unit": "fold"}, {"measurement": "incidence of serum aminotransferase elevations >3X ULN", "setting": "[2]; SERAPHIN, PAH patients, up to 103.9 weeks, placebo 4.5% ref 17, 19", "result": 3.4, "unit": "%"}, {"measurement": "incidence of aminotransferase elevations >8X ULN", "setting": "[2]; SERAPHIN, placebo 0.4% ref 19", "result": 2.1, "unit": "%"}]}, {"smiles": "Cc1cc2c(cc1CC(=O)c1sccc1S(=O)(=O)Nc1onc(C)c1Cl)OCO2", "note": "[sitaxsentan]", "values": [{"measurement": "IC50", "setting": "Pgp", "result": "> 100", "unit": "µM"}]}]}
